Measurements taken from ChEMBL document CHEMBL1143013, “4-aryl-5-(4-piperidyl)-3-isoxazolol GABAA antagonists: synthesis, pharmacology, and structure-activity relationships” (J Med Chem, 2007).
Active and inactive are the calls of the source. The rule behind the calls is not given here.

Assays:
[1] = Displacement of [3H]muscimol from GABAA receptor in Sprague-Dawley rat brain synaptic membrane
Rattus norvegicus = organism: Rattus norvegicus; assay: Displacement of [3H]GABA from GABAB receptor in Sprague-Dawley rat brain synaptic membrane at 100 uM
[2] = molecular target: T1, GABA-A receptor; alpha-1/beta-3/gamma-2 (Homo sapiens, UniProt P14867+P18507+P28472); assay: Antagonist activity at human GABAA alpha-1-beta-3-gamma-2S expressed in Xenopus oocytes by two-electrode voltage-clamp electrophysiology; format: functional, cell-based, Oocyte
T1 sequence (P14867 whole entry): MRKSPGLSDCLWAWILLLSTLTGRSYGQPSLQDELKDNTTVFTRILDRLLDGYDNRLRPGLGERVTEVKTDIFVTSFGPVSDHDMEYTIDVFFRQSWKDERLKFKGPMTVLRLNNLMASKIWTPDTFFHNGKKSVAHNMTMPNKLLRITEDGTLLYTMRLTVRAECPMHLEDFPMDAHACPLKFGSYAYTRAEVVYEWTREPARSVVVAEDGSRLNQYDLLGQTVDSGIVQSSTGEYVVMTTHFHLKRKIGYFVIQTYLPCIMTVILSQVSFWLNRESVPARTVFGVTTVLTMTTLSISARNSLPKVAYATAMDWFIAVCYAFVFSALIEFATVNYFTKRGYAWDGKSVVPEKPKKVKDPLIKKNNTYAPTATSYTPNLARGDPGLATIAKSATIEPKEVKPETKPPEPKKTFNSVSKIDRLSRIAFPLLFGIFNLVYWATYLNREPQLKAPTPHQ
T1 sequence (P18507 whole entry): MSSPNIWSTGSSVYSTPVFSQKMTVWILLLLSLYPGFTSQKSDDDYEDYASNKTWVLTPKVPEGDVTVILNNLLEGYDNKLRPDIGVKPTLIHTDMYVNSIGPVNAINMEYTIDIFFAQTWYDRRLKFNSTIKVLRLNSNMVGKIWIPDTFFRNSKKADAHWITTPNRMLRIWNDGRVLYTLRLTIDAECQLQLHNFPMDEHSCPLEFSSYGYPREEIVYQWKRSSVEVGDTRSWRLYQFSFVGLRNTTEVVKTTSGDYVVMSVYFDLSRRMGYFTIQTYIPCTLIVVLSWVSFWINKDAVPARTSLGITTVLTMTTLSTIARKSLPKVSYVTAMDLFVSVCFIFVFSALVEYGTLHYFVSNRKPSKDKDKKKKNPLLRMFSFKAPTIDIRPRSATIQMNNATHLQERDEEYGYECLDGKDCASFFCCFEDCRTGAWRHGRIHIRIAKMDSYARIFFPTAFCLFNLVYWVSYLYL
T1 sequence (P28472 whole entry): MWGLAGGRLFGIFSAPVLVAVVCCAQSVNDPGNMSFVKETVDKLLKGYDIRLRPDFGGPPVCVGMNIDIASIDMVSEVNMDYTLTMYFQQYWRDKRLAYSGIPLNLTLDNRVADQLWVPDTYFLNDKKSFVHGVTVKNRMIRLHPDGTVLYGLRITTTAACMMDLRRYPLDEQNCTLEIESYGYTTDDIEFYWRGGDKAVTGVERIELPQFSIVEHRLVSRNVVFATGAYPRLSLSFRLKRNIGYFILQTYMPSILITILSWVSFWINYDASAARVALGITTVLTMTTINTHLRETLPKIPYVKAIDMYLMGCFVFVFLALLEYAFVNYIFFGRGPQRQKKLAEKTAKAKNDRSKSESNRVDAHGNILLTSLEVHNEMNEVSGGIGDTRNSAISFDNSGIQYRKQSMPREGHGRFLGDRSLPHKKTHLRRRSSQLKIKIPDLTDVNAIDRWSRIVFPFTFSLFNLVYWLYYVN

Compound	Ki [1] [nM]	Activity (Rattus norvegicus)	Ki ([2]; read-out: Ki) [nM]	Log Ki [1]	Ki ([2]; read-out: Log Ki (converted)) [nM]
Oc1noc(C2CCNCC2)c1Cc1ccc2ccccc2c1	49	inactive			
Oc1noc(C2CCNCC2)c1-c1cccc2ccccc12	820	inactive			
Oc1noc(C2CCNCC2)c1Cc1ccc2ccccc2c1-c1ccccc1	21	inactive	198		
Oc1cc(C2CCNCC2)on1		inactive			
Br.Oc1noc(C2CCNCC2)c1-c1ccc(Oc2ccccc2)cc1	70	inactive	8	-7.15	
O=c1[nH]oc(C2CCNCC2)c1-c1cccc2ccccc12			334		
Br.Oc1noc(C2CCNCC2)c1-c1cccc(-c2ccccc2)c1	10	inactive	10	-8	
Br.Oc1noc(C2CCNCC2)c1-c1ccc(-c2ccccc2)cc1	195	inactive	71	-6.71	
Br.CC(C)(C)c1ccc(-c2c(O)noc2C2CCNCC2)cc1	6980	inactive	257	-5.16	
Br.Oc1noc(C2CCNCC2)c1-c1csc(-c2ccccc2)c1	25	inactive	9	-7.61	

Results, then the compound that gave them:

Ki [1] [nM]	Activity (Rattus norvegicus)	Ki ([2]; read-out: Ki) [nM]	Log Ki [1]	Ki ([2]; read-out: Log Ki (converted)) [nM]	Compound
36	inactive	141			Oc1noc(C2CCNCC2)c1-c1ccc2ccccc2c1
317	inactive	76	-6.5		Br.Oc1noc(C2CCNCC2)c1-c1ccsc1
851	inactive	129	-6.07		Br.Oc1noc(C2CCNCC2)c1-c1ccccc1Cl
84	inactive	59	-7.07		Br.Br.Nc1cccc(-c2c(O)noc2C2CCNCC2)c1
58	inactive	48	-7.24		Br.Oc1noc(C2CCNCC2)c1-c1cccc(Cl)c1
234	inactive	138	-6.63		Br.O=[N+]([O-])c1cccc(-c2c(O)noc2C2CCNCC2)c1
220	inactive	159			Oc1noc(C2CCNCC2)c1-c1ccccc1
955	inactive	427	-6.02	479	Br.Oc1noc(C2CCNCC2)c1-c1cccnc1
2420	inactive	204	-5.62		Br.Oc1noc(C2CCNCC2)c1-c1ccc(Cl)cc1
77	inactive	68	-7.11		Br.Oc1noc(C2CCNCC2)c1-c1cc(Cl)cc(Cl)c1
